# According to the supplement of paper PMC10733146:
# Tests used:
# Assay in all cases: viability relative to DMSO control (fraction); higher = less drug effect (more viable cells)
# Details in all cases: 48 h
# [1] = compound: C#CCC(Cc1cnc2nc(N)nc(N)c2n1)c1ccc(C(=O)N[C@@H](CCC(=O)O)C(=O)O)cc1 [Pralatrexate]
# In short: (§1)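 Viability is given as CellTiter-Glo luminescence relative to the median of 16 inner DMSO wells. Fresh or cryopreserved primary mononuclear tumour cells from blood, bone marrow (both Ficoll-isolated) or processed lymph node were plated at 4 × 10^4 cells per well in 384-well plates against five pre-plated compound concentrations, one well each. Incubation lasted 48 h at 37 °C and 5% CO2 in RPMI-1640 with penicillin/streptomycin, L-glutamine and human serum.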
# [2] = compound: O=C(CCCCCCC(=O)Nc1ccccc1)NO [Vorinostat]
# In short: as §1
# [3] = compound: C1=N/C2=N/c3ccc(OCCN4CCCC4)c(c3)COC/C=C/COCc3cccc(c3)C(=C1)N2 [Pacritinib]
# In short: as §1
# [4] = compound: COc1nc(N)nc2c1ncn2[C@@H]1O[C@H](CO)[C@@H](O)[C@@H]1O [Nelarabine]
# In short: as §1
# [5] = compound: Cn1c(=O)n(-c2ccc(C(C)(C)C#N)cc2)c2c3cc(-c4cnc5ccccc5c4)ccc3ncc21 [BEZ235]
# In short: as §1
# [6] = compound: O=C(NCC1(c2nc(-c3ccccc3)cs2)CCOCC1)c1cccc(-c2noc(C(F)(F)F)n2)c1 [TMP269]
# In short: as §1
# [7] = compound: Cc1cn(-c2cc(NC(=O)c3ccc(C)c(Nc4nccc(-c5cccnc5)n4)c3)cc(C(F)(F)F)c2)cn1 [Nilotinib]
# In short: as §1
# [8] = compound: CC(C)C[C@H](NC(=O)[C@H](Cc1ccccc1)NC(=O)c1cnccn1)B(O)O [Bortezomib]
# In short: as §1
# [9] = compound: COc1cc(OC)c(/C=C/S(=O)(=O)Cc2ccc(OC)c(NCC(=O)O)c2)c(OC)c1 [Rigosertib]
# In short: as §1
# [10] = compound: OC[C@H]1O[C@@H](n2cnc3c2N=CNC[C@H]3O)C[C@@H]1O [Pentostatin]
# In short: as §1
# [11] = compound: CC(C)(O)CNc1nc(Nc2ccnc(C(F)(F)F)c2)nc(-c2cccc(C(F)(F)F)n2)n1 [AG-221 (Enasidinib)]
# In short: as §1
# [12] = compound: Nc1nc2n[nH]nc2c(=O)[nH]1 [8-Azaguanin]
# In short: as §1
# [13] = compound: CC[C@]1(O)C[C@H]2CN(CCc3c([nH]c4ccccc34)[C@@](C(=O)OC)(c3cc4c(cc3OC)N(C=O)[C@H]3[C@@](O)(C(=O)OC)[C@H](OC(C)=O)[C@]5(CC)C=CCN6CC[C@]43[C@@H]65)C2)C1 [Vincristine]
# In short: as §1
# [14] = compound: Cc1ccc(NC(=O)c2ccc(CN3CCN(C)CC3)cc2)cc1Nc1nccc(-c2cccnc2)n1 [Imatinib]
# In short: as §1
# [15] = compound: COC1=CC(c2cc3ccccc3[nH]2)=N/C1=C\c1[nH]c(C)cc1C [Obatoclax mesylate]
# In short: as §1
test system,measurement,setting,value
primary AML patient cells (S072),viability,[1]; 0.024 µM,1.02
same,viability,[1]; 0.12 µM,0.952
same,viability,[1]; 0.6 µM,0.9
same,viability,[1]; 3 µM,1.03
same,viability,[1]; 15 µM,0.912
same,viability,[2]; 0.016 µM,1.1
same,viability,[2]; 0.08 µM,0.994
same,viability,[2]; 0.4 µM,0.739
same,viability,[2]; 2 µM,0.365
same,viability,[2]; 10 µM,0.223
same,viability,[3]; 0.024 µM,1
same,viability,[3]; 0.12 µM,1.06
same,viability,[3]; 0.6 µM,0.782
same,viability,[3]; 3 µM,0.195
same,viability,[3]; 15 µM,0.0242
same,viability,[4]; 0.024 µM,1.03
same,viability,[4]; 0.12 µM,1.33
same,viability,[4]; 0.6 µM,0.944
same,viability,[4]; 3 µM,0.945
same,viability,[4]; 15 µM,0.823
same,viability,[5]; 0.024 µM,0.924
same,viability,[5]; 0.12 µM,0.966
same,viability,[5]; 0.6 µM,0.764
same,viability,[5]; 3 µM,0.687
same,viability,[5]; 15 µM,0.331
same,viability,[6]; 0.024 µM,0.967
same,viability,[6]; 0.12 µM,0.929
same,viability,[6]; 0.6 µM,0.977
same,viability,[6]; 3 µM,0.888
same,viability,[6]; 15 µM,0.901
same,viability,[7]; 0.016 µM,1.16
same,viability,[7]; 0.08 µM,1.11
same,viability,[7]; 0.4 µM,1.2
same,viability,[7]; 2 µM,1.13
same,viability,[7]; 10 µM,1.23
same,viability,[8]; 0.008 µM,0.904
same,viability,[8]; 0.04 µM,0.911
same,viability,[8]; 0.2 µM,0.941
same,viability,[8]; 1 µM,0.901
same,viability,[8]; 5 µM,0.989
same,viability,[9]; 0.008 µM,0.941
same,viability,[9]; 0.04 µM,0.99
same,viability,[9]; 0.2 µM,0.983
same,viability,[9]; 1 µM,0.935
same,viability,[9]; 5 µM,0.872
same,viability,[10]; 0.03 µM,0.963
same,viability,[10]; 0.15 µM,0.897
same,viability,[10]; 0.75 µM,0.897
same,viability,[10]; 3.75 µM,0.832
same,viability,[10]; 18.76 µM,0.801
same,viability,[11]; 0.024 µM,0.726
same,viability,[11]; 0.12 µM,0.85
same,viability,[11]; 0.6 µM,0.908
same,viability,[11]; 3 µM,0.734
same,viability,[11]; 15 µM,0.634
same,viability,[12]; 0.032 µM,0.959
same,viability,[12]; 0.16 µM,0.94
same,viability,[12]; 0.8 µM,0.775
same,viability,[12]; 4 µM,0.666
same,viability,[12]; 20 µM,0.571
same,viability,[13]; 0.016 µM,0.963
same,viability,[13]; 0.08 µM,0.951
same,viability,[13]; 0.4 µM,0.752
same,viability,[13]; 2 µM,0.711
same,viability,[13]; 10 µM,0.568
same,viability,[14]; 0.08 µM,1.04
same,viability,[14]; 0.4 µM,1.47
same,viability,[14]; 2 µM,0.942
same,viability,[14]; 10 µM,0.917
same,viability,[15]; 0.024 µM,1.08
same,viability,[15]; 0.12 µM,1.1
same,viability,[15]; 0.6 µM,0.903
same,viability,[15]; 3 µM,0.342
same,viability,[15]; 15 µM,0.0965
primary AML patient cells (S006),viability,[1]; 0.024 µM,0.998
same,viability,[1]; 0.12 µM,0.979
same,viability,[1]; 0.6 µM,0.96
same,viability,[1]; 3 µM,1.04
same,viability,[1]; 15 µM,0.924
same,viability,[2]; 0.016 µM,1.06
same,viability,[2]; 0.08 µM,0.964
same,viability,[2]; 0.4 µM,0.916
same,viability,[2]; 2 µM,0.651
same,viability,[2]; 10 µM,0.147
same,viability,[3]; 0.024 µM,1.07
same,viability,[3]; 0.12 µM,0.805
same,viability,[3]; 0.6 µM,0.403
same,viability,[3]; 3 µM,0.198
same,viability,[3]; 15 µM,0.021
same,viability,[4]; 0.024 µM,1.03
same,viability,[4]; 0.12 µM,1.07
same,viability,[4]; 0.6 µM,0.982
same,viability,[4]; 3 µM,0.947
same,viability,[4]; 15 µM,0.728
same,viability,[5]; 0.024 µM,0.873
same,viability,[5]; 0.12 µM,0.968
same,viability,[5]; 0.6 µM,0.71
same,viability,[5]; 3 µM,0.749
same,viability,[5]; 15 µM,0.262
same,viability,[6]; 0.024 µM,1.09
same,viability,[6]; 0.12 µM,1.03
same,viability,[6]; 0.6 µM,1.11
same,viability,[6]; 3 µM,0.975
same,viability,[6]; 15 µM,0.812
same,viability,[7]; 0.016 µM,1.17
same,viability,[7]; 0.08 µM,1.08
same,viability,[7]; 0.4 µM,1.13
same,viability,[7]; 2 µM,1.09
same,viability,[7]; 10 µM,1.14
same,viability,[8]; 0.008 µM,0.902
same,viability,[8]; 0.04 µM,1.01
same,viability,[8]; 0.2 µM,0.903
same,viability,[8]; 1 µM,1.02
same,viability,[8]; 5 µM,0.859
same,viability,[9]; 0.008 µM,1.03
same,viability,[9]; 0.04 µM,1.06
same,viability,[9]; 0.2 µM,1.08
same,viability,[9]; 1 µM,1.06
same,viability,[9]; 5 µM,0.975
same,viability,[10]; 0.03 µM,0.922
same,viability,[10]; 0.15 µM,0.912
same,viability,[10]; 0.75 µM,1.13
same,viability,[10]; 3.75 µM,1.01
same,viability,[10]; 18.76 µM,0.857
same,viability,[11]; 0.024 µM,0.94
same,viability,[11]; 0.12 µM,0.946
same,viability,[11]; 0.6 µM,1.06
same,viability,[11]; 3 µM,0.915
same,viability,[11]; 15 µM,0.974
same,viability,[12]; 0.032 µM,1.09
same,viability,[12]; 0.16 µM,1.07
same,viability,[12]; 0.8 µM,0.682
same,viability,[12]; 4 µM,0.242
same,viability,[12]; 20 µM,0.127
same,viability,[13]; 0.016 µM,0.959
same,viability,[13]; 0.08 µM,0.539
same,viability,[13]; 0.4 µM,0.251
same,viability,[13]; 2 µM,0.388
same,viability,[13]; 10 µM,0.134
same,viability,[14]; 2 µM,0.988
same,viability,[14]; 10 µM,0.783
same,viability,[15]; 0.024 µM,1.01
same,viability,[15]; 0.12 µM,0.945
same,viability,[15]; 0.6 µM,0.708
same,viability,[15]; 3 µM,0.405
same,viability,[15]; 15 µM,0.121
primary T-PLL patient cells (S008),viability,[1]; 0.024 µM,1.09
same,viability,[1]; 0.12 µM,0.978
same,viability,[1]; 0.6 µM,0.965
same,viability,[1]; 3 µM,0.982
same,viability,[1]; 15 µM,0.971
same,viability,[2]; 0.016 µM,1.01
same,viability,[2]; 0.08 µM,0.989
same,viability,[2]; 0.4 µM,1.07
same,viability,[2]; 2 µM,0.984
same,viability,[2]; 10 µM,0.851
same,viability,[3]; 0.024 µM,1.02
same,viability,[3]; 0.12 µM,1.11
same,viability,[3]; 0.6 µM,1.03
same,viability,[3]; 3 µM,0.86
same,viability,[3]; 15 µM,0.0403
same,viability,[4]; 0.024 µM,1.03
same,viability,[4]; 0.12 µM,0.99
same,viability,[4]; 0.6 µM,0.942
same,viability,[4]; 3 µM,0.906
same,viability,[4]; 15 µM,0.758
same,viability,[5]; 0.024 µM,0.969
same,viability,[5]; 0.12 µM,0.967
same,viability,[5]; 0.6 µM,0.927
same,viability,[5]; 3 µM,0.941
same,viability,[5]; 15 µM,0.308
same,viability,[6]; 0.024 µM,1.04
same,viability,[6]; 0.12 µM,1.01
same,viability,[6]; 0.6 µM,1.01
same,viability,[6]; 3 µM,1.01
same,viability,[6]; 15 µM,0.947
same,viability,[7]; 0.016 µM,1.09
same,viability,[7]; 0.08 µM,1.02
same,viability,[7]; 0.4 µM,1.11
same,viability,[7]; 2 µM,1.01
same,viability,[7]; 10 µM,1.06
same,viability,[8]; 0.008 µM,0.88
same,viability,[8]; 0.04 µM,1.02
same,viability,[8]; 0.2 µM,0.872
same,viability,[8]; 1 µM,0.921
same,viability,[8]; 5 µM,0.879
same,viability,[9]; 0.008 µM,1.07
same,viability,[9]; 0.04 µM,1.02
same,viability,[9]; 0.2 µM,1.07
same,viability,[9]; 1 µM,0.991
same,viability,[9]; 5 µM,0.98
same,viability,[10]; 0.03 µM,1.04
same,viability,[10]; 0.15 µM,0.989
same,viability,[10]; 0.75 µM,1
same,viability,[10]; 3.75 µM,0.892
same,viability,[10]; 18.76 µM,0.917
same,viability,[11]; 0.024 µM,0.915
same,viability,[11]; 0.12 µM,0.887
same,viability,[11]; 0.6 µM,1.04
same,viability,[11]; 3 µM,1.01
same,viability,[11]; 15 µM,0.899
same,viability,[12]; 0.032 µM,0.898
same,viability,[12]; 0.16 µM,0.991
same,viability,[12]; 0.8 µM,0.91
same,viability,[12]; 4 µM,0.858
same,viability,[12]; 20 µM,0.712
same,viability,[13]; 0.016 µM,0.66
same,viability,[13]; 0.08 µM,0.34
same,viability,[13]; 0.4 µM,0.269
same,viability,[13]; 2 µM,0.22
same,viability,[13]; 10 µM,0.164
same,viability,[14]; 0.08 µM,0.971
same,viability,[14]; 0.4 µM,1.07
same,viability,[14]; 2 µM,0.994
same,viability,[14]; 10 µM,0.978
same,viability,[15]; 0.024 µM,1.02
same,viability,[15]; 0.12 µM,0.899
same,viability,[15]; 0.6 µM,0.718
same,viability,[15]; 3 µM,0.563
same,viability,[15]; 15 µM,0.175
